Data on 1 compound can be found in patent US12290521B2, “Methods and materials for identifying and treating BET inhibitor-resistant cancers” (Mayo Foundation for Medical Education and Research, priority 2018, dated 2025).

The subject of assay [1] is DU145 cells. The experiment in a line: Clonogenic survival (colony formation) assay. The assay is classed as cell-based, human. Particulars: JQ1 for 3 days, harvested at day 10. The method, then: FIGS. 26A-26I. Determination of the role of DUB3-mediated stabilization of BRD4 in BET inhibitor resistance using both loss of function and gain of function approaches. (FIG. 26A) Western blot analysis of indicated proteins in PC-3 cells infected with lentivirus expressing control or DUB3-specific shRNA for 24 hours and then co-transfected with plasmids for wild-type (WT) and mutants of HA-DUB3 for 24 hours. (FIG. 26B) Western blot analysis of indicated proteins in PC-3 cells infected with lentivirus expressing control or DUB3-specific shRNAs for 24 hours and then co-transfected with the indicated plasmids for 24 hours. Cells were treated with MG132 for 8 hours before harvested. (FIG. 26C) DU145 cells were infected with lentivirus expressing control or DUB3-specific shRNAs. After 48 hours puromycin selection, cells were treated with I-BET (5 μM), PD0332991 (5 μM) or both followed by MTS assay. All data are shown as mean values±SD (n=6). ***P<0.001, n.s., not significant. (FIG. 26D, FIG. 26E) DU145 cells were infected with lentivirus expressing indicated shRNAs and/or plasmids. After 48 hours puromycin selection, cells were treated with JQ1 (2 μM), PD0332991 (5 μM) or both followed by MTS assay (FIG. 26D) and Western blot (FIG. 26E). The quantitative data are shown as mean values±SD (n=6). ***P<0.001, n.s., not significant. (FIG. 26F, FIG. 26G) DU145 cells were infected with lentivirus expressing indicated shRNAs and/or plasmids. After 48 hours puromycin selection, cells were treated with I-BET (5 μM), PD0332991 (5 μM) or both followed by MTS assay (FIG. 26F) and Western blot (FIG. 26G). All data are shown as mean values±SD (n=6). *P<0.05, ***P<0.001, n.s., not significant. (FIG. 26H) DU145 cells were infected with lentivirus expressing control, DUB3 expressing vector and/or control or BRD4-specific shRNAs. After 48 hours puromycin selection, cells were plated for clonogenic survival assay. Cells were treated with a series of JQ1 concentrations for 3 days and harvested at day 10. Colonies with more than 50 cells were counted. IC50 is shown as a dotted line in the middle of the graph. […] OE, overexpression. KD, shRNA-mediated knockdown. (FIG. 26I) DU145 cells were infected with lentivirus as in (FIG. 26H) for 48 hours and then treated with 0.5 μM of JQ1 for 3 days and harvested at day 10. Colonies were photographed and quantified. Data represent means±SEM (n=3); P values were determined by the unpaired two-tailed Student's t-test. *P<0.05, **P<0.01.
An appropriate number of cells for different dosages of JQ1 were plated onto 6-well plate and treated with JQ1 for three days. After three-day treatment, the medium was changed with fresh medium without drugs for another 8 days. […] Colonies with more than 50 cells were counted. […]

The subject of assay [2] is BRD4. As to the kind of experiment: ChIP-seq and ChIP-qPCR of BRD4 binding in C4-2 cells. The assay is classed as cell-based, human. Particulars: control and SPOP-F133V C4-2 cells; JQ1 1 μM, 24 hours. As to the method:
ChIP was performed as described elsewhere (Boyer et al., Cell, 122:947-956 (2005)). ChIP-seq libraries were prepared using the methods as described elsewhere (Boyer et al., Cell, 122:947-956 (2005)), and high throughput sequencing was performed using the Illumina HiSeq2000 platforms. The data were analyzed using the following pipeline: ChIP-seq raw reads were aligned to the human reference genome (GRCh37/hg19) using Bowtie2 (2.2.9), and reads mapped to one or two locations were kept for further analysis. Peak calling was performed by MACS2 (2.1.1) with p-value threshold of 1e-5. BigWig files were generated for visualization with the UCSC genome browser or IGV. GREAT (bejerano.stanford.edu/great/public/html/) was used to assign peaks to their potential target genes (a peak-gene association was determined if the peak fell into 2 kb region centering on the transcription start site of the gene). The common BRD4 target genes induced by SPOP F133V and HA-BRD4 expression were determined independently in each of two biological repeat experiments. Raw and processed data were deposited into NCBI Gene Expression Omnibus with accession number GSE88872.
For ChIP-qPCR experiments, DNAs pulled down by antibodies or non-specific IgG were amplified by real-time PCR. […]

For the compound `Cc1sc2c(c1C)C(c1ccc(Cl)cc1)=N[C@@H](CC(=O)OC(C)(C)C)c1nnc(C)n1-2` [JQ1], the IC50 in assay [1] (DU145 BRD4 KD (shRNA knockdown)) is 278 nM; in assay [1] (DU145 DUB3 OE (overexpression)) it was 576 nM; in assay [1] (DU145 DUB3 OE BRD4 KD) it was 297 nM; in assay [1] (DU145 EV (control)) it was 421 nM. Further, the “BRD4 binding in the AR gene promoter” value in assay [2] was “largely decreased”. For the same compound, the “BRD4 binding in the MYC gene enhancer” value in assay [2] was “substantial reduction”.
